Results: ChEMBL document CHEMBL4804286, “3-amino-4-(4-(4 (dimethylcarbamoyl) phenyl)-1,4-diazepan-1-yl) thieno [2,3-b] pyridine-2-carboxamide for use in cancer therapy and formulations comprising the same” (2020)
Several values for one entry are separate records, joined by “and”; a condition that tells them apart may be missing. Identical values can stand only once. Activity calls are given as the source filed them. The rule behind the calls is not given here.

Legend:
[1] = tested on: Hepatocyte growth factor receptor (Homo sapiens), P08581 [Y1235D]; assay: Inhibition of human MET Y1235D mutant assessed as percent of control at 2000 nM by KINOMEscan assay relative to control; design: scale not given: the % may be the effect or the level left
[2] = molecular target: Ephrin type-A receptor 7 (Homo sapiens) (UniProt Q15375); assay: Inhibition of human EPHA7 assessed as percent of control at 2000 nM by KINOMEscan assay relative to control; design: scale not given: the % may be the effect or the level left
[3] = molecular target: Membrane-associated tyrosine- and threonine-specific cdc2-inhibitory kinase (Homo sapiens) (UniProt Q99640); assay: Inhibition of human PKMYT1 assessed as percent of control at 2000 nM by KINOMEscan assay relative to control; design: scale not given: the % may be the effect or the level left
[4] = molecular target: Dual specificity mitogen-activated protein kinase kinase 4 (Homo sapiens) (UniProt P45985); assay: Inhibition of human MEK4 assessed as percent of control at 2000 nM by KINOMEscan assay relative to control; design: scale not given: the % may be the effect or the level left
[5] = molecular target: Beta-adrenergic receptor kinase 1 (Homo sapiens) (UniProt P25098); assay: Inhibition of human GRK2 assessed as percent of control at 2000 nM by KINOMEscan assay relative to control; design: scale not given: the % may be the effect or the level left
[6] = tested on: Receptor-type tyrosine-protein kinase FLT3 (Homo sapiens), P36888 [N841I]; assay: Inhibition of human FLT3 N841I mutant assessed as percent of control at 2000 nM by KINOMEscan assay relative to control; design: scale not given: the % may be the effect or the level left
[7] = molecular target: cGMP-dependent protein kinase 1 (Homo sapiens) (UniProt Q13976); assay: Inhibition of human PRKG1 assessed as percent of control at 2000 nM by KINOMEscan assay relative to control; design: scale not given: the % may be the effect or the level left
[8] = molecular target: Glycogen synthase kinase-3 alpha (Homo sapiens) (UniProt P49840); assay: Inhibition of human GSK3A assessed as percent of control at 2000 nM by KINOMEscan assay relative to control; design: scale not given: the % may be the effect or the level left; conditions: INHIBITOR
[9] = molecular target: Phosphatidylinositol 4,5-bisphosphate 3-kinase catalytic subunit delta isoform (Homo sapiens) (UniProt O00329); assay: Inhibition of human PIK3CD assessed as percent of control at 2000 nM by KINOMEscan assay relative to control; design: scale not given: the % may be the effect or the level left
[10] = molecular target: Ephrin type-A receptor 3 (Homo sapiens) (UniProt P29320); assay: Inhibition of human EPHA3 assessed as percent of control at 2000 nM by KINOMEscan assay relative to control; design: scale not given: the % may be the effect or the level left
[11] = molecular target: Tyrosine-protein kinase JAK1 (Homo sapiens) (UniProt P23458); assay: Inhibition of human JAK1 JH1 catalytic domain assessed as percent of control at 2000 nM by KINOMEscan assay relative to control; design: scale not given: the % may be the effect or the level left
[12] = molecular target: Phosphatidylinositol 3-kinase catalytic subunit type 3 (Homo sapiens) (UniProt Q8NEB9); assay: Inhibition of human VPS34 assessed as percent of control at 2000 nM by KINOMEscan assay relative to control; design: scale not given: the % may be the effect or the level left
[13] = molecular target: TGF-beta receptor type-1 (Homo sapiens) (UniProt P36897); assay: Inhibition of human TGFBR1 assessed as percent of control at 2000 nM by KINOMEscan assay relative to control; design: scale not given: the % may be the effect or the level left
[14] = molecular target: Ephrin type-B receptor 4 (Homo sapiens) (UniProt P54760); assay: Inhibition of human EPHB4 assessed as percent of control at 2000 nM by KINOMEscan assay relative to control; design: scale not given: the % may be the effect or the level left
[15] = molecular target: Myosin light chain kinase 2, skeletal/cardiac muscle (Homo sapiens) (UniProt Q9H1R3); assay: Inhibition of human MYLK2 assessed as percent of control at 2000 nM by KINOMEscan assay relative to control; design: scale not given: the % may be the effect or the level left
[16] = molecular target: Cyclin-dependent kinase 15 (Homo sapiens) (UniProt Q96Q40); assay: Inhibition of human PFTAIRE2 assessed as percent of control at 2000 nM by KINOMEscan assay relative to control; design: scale not given: the % may be the effect or the level left
[17] = molecular target: Serine/threonine-protein kinase NIM1 (Homo sapiens) (UniProt Q8IY84); assay: Inhibition of human NIM1 assessed as percent of control at 2000 nM by KINOMEscan assay relative to control; design: scale not given: the % may be the effect or the level left
[18] = molecular target: Calcium/calmodulin-dependent protein kinase type IV (Homo sapiens) (UniProt Q16566); assay: Inhibition of human CAMK4 assessed as percent of control at 2000 nM by KINOMEscan assay relative to control; design: scale not given: the % may be the effect or the level left
[19] = tested on: Epidermal growth factor receptor (Homo sapiens), P00533 [UNDEFINED MUTATION]; assay: Inhibition of human EGFR E746-A750del mutant assessed as percent of control at 2000 nM by KINOMEscan assay relative to control; design: scale not given: the % may be the effect or the level left
[20] = molecular target: AP2-associated protein kinase 1 (Homo sapiens) (UniProt Q2M2I8); assay: Inhibition of human AAK1 assessed as percent of control at 2000 nM by KINOMEscan assay relative to control; design: scale not given: the % may be the effect or the level left
[21] = molecular target: Bone morphogenetic protein receptor type-1A (Homo sapiens) (UniProt P36894); assay: Inhibition of human BMPR1A assessed as percent of control at 2000 nM by KINOMEscan assay relative to control; design: scale not given: the % may be the effect or the level left
[22] = molecular target: Macrophage colony-stimulating factor 1 receptor (Homo sapiens) (UniProt P07333); assay: Inhibition of human autoinhibited CSF1R assessed as percent of control at 2000 nM by KINOMEscan assay relative to control; design: scale not given: the % may be the effect or the level left
[23] = molecular target: Homeodomain-interacting protein kinase 1 (Homo sapiens) (UniProt Q86Z02); assay: Inhibition of human HIPK1 assessed as percent of control at 2000 nM by KINOMEscan assay relative to control; design: scale not given: the % may be the effect or the level left
[24] = molecular target: Receptor tyrosine-protein kinase erbB-3 (Homo sapiens) (UniProt P21860); assay: Inhibition of human ERBB3 assessed as percent of control at 2000 nM by KINOMEscan assay relative to control; design: scale not given: the % may be the effect or the level left
[25] = molecular target: MAP/microtubule affinity-regulating kinase 4 (Homo sapiens) (UniProt Q96L34); assay: Inhibition of human MARK4 assessed as percent of control at 2000 nM by KINOMEscan assay relative to control; design: scale not given: the % may be the effect or the level left
[26] = molecular target: Macrophage colony-stimulating factor 1 receptor (Homo sapiens) (UniProt P07333); assay: Inhibition of human CSF1R assessed as percent of control at 2000 nM by KINOMEscan assay relative to control; design: scale not given: the % may be the effect or the level left
[27] = molecular target: Casein kinase I isoform gamma-3 (Homo sapiens) (UniProt Q9Y6M4); assay: Inhibition of human CSNK1G3 assessed as percent of control at 2000 nM by KINOMEscan assay relative to control; design: scale not given: the % may be the effect or the level left
Myc-CaP = assay: Antiproliferative activity against murine castration-resistant Myc-CaP cells at 1 uM assessed as growth inhibition in presence of 5 uM enzalutamide relative to control; type: functional; conditions: Mus musculus
[28] = molecular target: Testis-specific serine/threonine-protein kinase 1 (Homo sapiens) (UniProt Q9BXA7); assay: Inhibition of human TSSK1B assessed as percent of control at 2000 nM by KINOMEscan assay relative to control; design: scale not given: the % may be the effect or the level left
CWR22R = assay: Antitumor activity against human 22Rv1 cells expressing AR-V7 xenografted in male nude mouse assessed as suppression of tumor growth at 25 mg/kg, administered twice a day for 40 days; type: functional, organism-based
[29] = molecular target: Serine/threonine-protein kinase 24 (Homo sapiens) (UniProt Q9Y6E0); assay: Inhibition of human MST3 assessed as percent of control at 2000 nM by KINOMEscan assay relative to control; design: scale not given: the % may be the effect or the level left

Sequence of Macrophage colony-stimulating factor 1 receptor (Homo sapiens) (P07333 whole entry, canonical isoform): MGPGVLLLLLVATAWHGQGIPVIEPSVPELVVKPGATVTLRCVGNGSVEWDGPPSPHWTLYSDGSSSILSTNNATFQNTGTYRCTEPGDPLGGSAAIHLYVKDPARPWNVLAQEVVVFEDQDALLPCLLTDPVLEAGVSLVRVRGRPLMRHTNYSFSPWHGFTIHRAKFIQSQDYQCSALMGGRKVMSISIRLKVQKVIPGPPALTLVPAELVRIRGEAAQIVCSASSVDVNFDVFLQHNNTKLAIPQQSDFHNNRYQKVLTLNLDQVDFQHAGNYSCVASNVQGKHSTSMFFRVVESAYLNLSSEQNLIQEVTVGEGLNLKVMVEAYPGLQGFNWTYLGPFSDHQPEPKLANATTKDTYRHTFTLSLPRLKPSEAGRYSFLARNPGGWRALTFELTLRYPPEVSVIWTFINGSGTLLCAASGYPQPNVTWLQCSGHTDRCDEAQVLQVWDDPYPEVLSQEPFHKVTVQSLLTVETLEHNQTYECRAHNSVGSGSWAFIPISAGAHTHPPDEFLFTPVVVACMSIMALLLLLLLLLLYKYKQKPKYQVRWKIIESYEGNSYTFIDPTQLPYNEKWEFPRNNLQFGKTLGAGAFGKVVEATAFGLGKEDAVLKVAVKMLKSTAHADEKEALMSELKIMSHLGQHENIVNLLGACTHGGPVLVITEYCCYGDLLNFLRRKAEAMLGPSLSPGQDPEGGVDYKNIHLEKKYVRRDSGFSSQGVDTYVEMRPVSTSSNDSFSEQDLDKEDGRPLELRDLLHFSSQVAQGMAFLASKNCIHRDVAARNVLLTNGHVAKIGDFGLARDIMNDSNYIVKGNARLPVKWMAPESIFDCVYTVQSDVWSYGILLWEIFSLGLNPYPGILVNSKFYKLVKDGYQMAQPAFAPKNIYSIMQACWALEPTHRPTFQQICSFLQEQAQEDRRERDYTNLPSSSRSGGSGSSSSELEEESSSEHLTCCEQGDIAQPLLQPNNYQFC
Sequence of Glycogen synthase kinase-3 alpha (Homo sapiens) (P49840 2-483 limits assumed): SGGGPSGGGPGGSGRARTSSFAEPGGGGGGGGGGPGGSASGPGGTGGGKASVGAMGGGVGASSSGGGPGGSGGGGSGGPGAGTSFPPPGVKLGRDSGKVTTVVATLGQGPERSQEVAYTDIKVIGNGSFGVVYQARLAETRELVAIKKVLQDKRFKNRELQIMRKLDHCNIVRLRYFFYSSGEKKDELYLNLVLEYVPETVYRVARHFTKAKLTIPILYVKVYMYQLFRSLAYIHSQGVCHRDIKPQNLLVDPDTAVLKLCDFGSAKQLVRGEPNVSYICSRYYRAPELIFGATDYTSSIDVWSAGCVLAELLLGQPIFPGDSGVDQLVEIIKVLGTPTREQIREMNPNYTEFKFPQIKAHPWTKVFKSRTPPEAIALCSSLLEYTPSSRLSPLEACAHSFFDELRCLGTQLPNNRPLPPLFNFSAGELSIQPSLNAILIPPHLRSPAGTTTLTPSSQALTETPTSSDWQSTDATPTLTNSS
Sequence of Phosphatidylinositol 3-kinase catalytic subunit type 3 (Homo sapiens) (Q8NEB9 whole entry): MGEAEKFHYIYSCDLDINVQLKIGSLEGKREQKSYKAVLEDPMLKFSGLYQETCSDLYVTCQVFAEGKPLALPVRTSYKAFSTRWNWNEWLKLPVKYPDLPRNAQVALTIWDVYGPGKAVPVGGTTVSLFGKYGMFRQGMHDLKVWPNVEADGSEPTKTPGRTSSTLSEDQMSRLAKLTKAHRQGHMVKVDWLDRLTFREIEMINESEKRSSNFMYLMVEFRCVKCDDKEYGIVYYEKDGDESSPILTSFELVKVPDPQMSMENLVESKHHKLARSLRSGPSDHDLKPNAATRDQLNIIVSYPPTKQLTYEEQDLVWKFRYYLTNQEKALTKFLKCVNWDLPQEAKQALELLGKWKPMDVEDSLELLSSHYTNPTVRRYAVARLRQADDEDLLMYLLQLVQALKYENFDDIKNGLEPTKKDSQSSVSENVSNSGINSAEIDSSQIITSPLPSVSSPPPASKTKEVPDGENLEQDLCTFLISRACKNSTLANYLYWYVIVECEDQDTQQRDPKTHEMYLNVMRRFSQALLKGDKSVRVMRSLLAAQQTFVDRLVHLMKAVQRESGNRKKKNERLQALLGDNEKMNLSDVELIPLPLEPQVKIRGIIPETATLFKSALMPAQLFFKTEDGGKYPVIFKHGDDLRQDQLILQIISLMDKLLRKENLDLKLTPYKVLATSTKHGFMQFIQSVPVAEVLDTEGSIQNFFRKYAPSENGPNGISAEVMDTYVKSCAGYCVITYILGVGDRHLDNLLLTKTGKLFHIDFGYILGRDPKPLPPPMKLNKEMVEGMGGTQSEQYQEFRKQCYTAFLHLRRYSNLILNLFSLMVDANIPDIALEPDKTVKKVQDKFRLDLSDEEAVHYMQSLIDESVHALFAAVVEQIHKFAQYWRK
Sequence of Tyrosine-protein kinase JAK1 (Homo sapiens) (P23458 whole entry, the tested form may be a part): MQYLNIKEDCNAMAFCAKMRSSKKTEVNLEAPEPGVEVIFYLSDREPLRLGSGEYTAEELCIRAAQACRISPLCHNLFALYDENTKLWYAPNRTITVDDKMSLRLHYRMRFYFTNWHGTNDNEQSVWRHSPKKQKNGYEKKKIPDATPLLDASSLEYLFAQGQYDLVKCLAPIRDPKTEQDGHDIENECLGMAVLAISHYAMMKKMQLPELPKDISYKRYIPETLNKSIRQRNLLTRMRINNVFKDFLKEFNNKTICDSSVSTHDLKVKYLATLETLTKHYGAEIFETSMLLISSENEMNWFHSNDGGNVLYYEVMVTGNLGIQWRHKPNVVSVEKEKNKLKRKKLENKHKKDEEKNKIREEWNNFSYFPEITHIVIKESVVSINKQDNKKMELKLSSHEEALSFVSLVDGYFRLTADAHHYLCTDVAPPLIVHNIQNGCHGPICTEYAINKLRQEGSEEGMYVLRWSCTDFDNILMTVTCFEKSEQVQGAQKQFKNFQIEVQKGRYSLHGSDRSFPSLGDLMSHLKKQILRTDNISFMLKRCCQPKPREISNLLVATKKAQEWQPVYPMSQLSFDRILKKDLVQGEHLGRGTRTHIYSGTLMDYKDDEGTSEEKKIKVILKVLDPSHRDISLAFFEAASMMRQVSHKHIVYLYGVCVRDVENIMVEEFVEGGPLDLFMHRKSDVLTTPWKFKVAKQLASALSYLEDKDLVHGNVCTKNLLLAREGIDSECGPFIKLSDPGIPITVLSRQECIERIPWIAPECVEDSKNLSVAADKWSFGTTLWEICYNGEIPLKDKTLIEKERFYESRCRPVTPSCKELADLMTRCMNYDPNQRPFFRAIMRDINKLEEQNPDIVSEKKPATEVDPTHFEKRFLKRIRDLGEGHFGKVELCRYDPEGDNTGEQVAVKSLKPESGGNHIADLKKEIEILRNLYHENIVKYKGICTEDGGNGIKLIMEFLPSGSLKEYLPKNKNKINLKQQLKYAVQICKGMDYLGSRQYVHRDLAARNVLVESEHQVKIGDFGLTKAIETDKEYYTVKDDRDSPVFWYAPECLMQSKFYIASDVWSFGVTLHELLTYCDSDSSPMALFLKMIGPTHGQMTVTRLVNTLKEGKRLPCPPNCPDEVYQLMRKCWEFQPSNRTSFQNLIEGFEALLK
Sequence of Casein kinase I isoform gamma-3 (Homo sapiens) (Q9Y6M4 whole entry, looked up, canonical isoform): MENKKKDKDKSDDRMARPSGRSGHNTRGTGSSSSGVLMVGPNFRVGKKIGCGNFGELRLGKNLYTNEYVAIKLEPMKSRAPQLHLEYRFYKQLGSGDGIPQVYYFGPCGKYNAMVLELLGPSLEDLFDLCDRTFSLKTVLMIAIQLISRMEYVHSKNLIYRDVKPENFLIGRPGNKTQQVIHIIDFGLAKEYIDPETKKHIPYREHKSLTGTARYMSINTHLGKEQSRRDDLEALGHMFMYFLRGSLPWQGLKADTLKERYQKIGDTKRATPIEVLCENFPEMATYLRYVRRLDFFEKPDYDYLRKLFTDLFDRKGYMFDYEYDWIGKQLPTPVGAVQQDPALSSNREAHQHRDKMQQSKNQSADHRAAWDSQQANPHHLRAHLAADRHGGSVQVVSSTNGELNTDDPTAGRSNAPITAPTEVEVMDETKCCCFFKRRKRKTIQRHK
Sequence of Ephrin type-A receptor 7 (Homo sapiens) (Q15375 28-998 limits assumed): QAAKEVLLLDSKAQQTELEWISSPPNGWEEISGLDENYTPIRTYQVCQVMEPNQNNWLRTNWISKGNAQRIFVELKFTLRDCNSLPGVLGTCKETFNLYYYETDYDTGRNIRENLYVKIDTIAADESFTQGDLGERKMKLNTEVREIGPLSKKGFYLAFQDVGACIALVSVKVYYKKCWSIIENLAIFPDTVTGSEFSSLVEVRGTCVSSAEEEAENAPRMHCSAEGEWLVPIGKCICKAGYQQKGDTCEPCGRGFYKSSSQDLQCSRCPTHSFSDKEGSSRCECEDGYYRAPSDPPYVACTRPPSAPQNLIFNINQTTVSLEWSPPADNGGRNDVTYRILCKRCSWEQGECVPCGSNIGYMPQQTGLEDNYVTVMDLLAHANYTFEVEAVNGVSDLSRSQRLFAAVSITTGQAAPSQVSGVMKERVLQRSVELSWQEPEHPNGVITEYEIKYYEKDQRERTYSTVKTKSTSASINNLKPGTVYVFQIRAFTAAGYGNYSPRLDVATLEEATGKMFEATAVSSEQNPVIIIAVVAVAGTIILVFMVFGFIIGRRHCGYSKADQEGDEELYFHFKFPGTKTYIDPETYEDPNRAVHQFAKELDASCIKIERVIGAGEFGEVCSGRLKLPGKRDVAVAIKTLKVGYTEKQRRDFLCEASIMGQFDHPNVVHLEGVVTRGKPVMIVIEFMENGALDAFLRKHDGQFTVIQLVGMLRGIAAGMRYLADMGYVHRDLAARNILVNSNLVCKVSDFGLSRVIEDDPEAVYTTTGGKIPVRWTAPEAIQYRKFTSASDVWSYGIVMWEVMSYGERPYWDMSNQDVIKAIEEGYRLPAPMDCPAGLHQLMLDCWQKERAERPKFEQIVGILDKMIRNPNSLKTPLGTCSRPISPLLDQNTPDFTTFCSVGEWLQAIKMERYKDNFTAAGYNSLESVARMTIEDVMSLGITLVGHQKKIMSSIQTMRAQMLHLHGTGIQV

`CN(C)C(=O)c1ccc(N2CCCN(c3ccnc4sc(C(N)=O)c(N)c34)CC2)cc1` was tested. Which Activity [1] did it give?
Its Activity is 100%.

What about the Activity [2] of the same molecule?
The Activity was 92% and 81%.

And the Activity [3]?
The Activity was 91% and 94%.

What about the Activity [4] of the same molecule?
Its Activity is 69% and 74%.

And the Activity [5]?
The Activity was 88% and 70%.

What about the Activity [6] of the same molecule?
The Activity was 90% and 86%.

And the Activity [7]?
The Activity was 88% and 100%.

And the Activity [8]?
The Activity was 31% and 34%.

What about the Activity [9] of the same molecule?
The Activity was 94% and 71%.

And the Activity [10]?
Its Activity is 100% and 87%.

What about the Activity [11] of the same molecule?
The Activity was 57% and 82%.

And the Activity [12]?
Its Activity is 85% and 65%.

And the Activity [13]?
The Activity was 100%.

What about the Activity [14] of the same molecule?
Its Activity is 100%.

And the Activity [15]?
The Activity was 100%.

What about the Activity [16] of the same molecule?
Its Activity is 100% and 80%.

And the Activity [17]?
Its Activity is 56% and 78%.

What about the Activity [18] of the same molecule?
The Activity was 96% and 79%.

And the Activity [19]?
Its Activity is 100%.

What about the Activity [20] of the same molecule?
The Activity was 94% and 90%.

And the Activity [21]?
Its Activity is 100%.

And the Activity [22]?
Its Activity is 88% and 83%.

And the Activity [23]?
Its Activity is 86% and 71%.

And the Activity [24]?
Its Activity is 100% and 88%.

And the Activity [25]?
The Activity was 100% and 98%.

What about the Activity [26] of the same molecule?
Its Activity is 98% and 95%.

And the Activity [27]?
Its Activity is 95% and 80%.

And the Activity (Myc-CaP)?
The Activity was “Active”.

What about the Activity [28] of the same molecule?
Its Activity is 80% and 99%.

And the Activity (CWR22R)?
Its Activity is “Active”.

What about the Activity [29] of the same molecule?
Its Activity is 97% and 84%.
